Measured values from patent US8822449B2, “Substituted aminoindanes and analogs thereof, and the pharmaceutical use thereof” (Sanofi, priority 2008, dated 2014).

Molecular target: T1, sodium-proton exchanger of subtype 3 (NHE3) (Homo sapiens, UniProt P48764)
T1 construct: expressed in transfected cells
T1 sequence (P48764 26-834): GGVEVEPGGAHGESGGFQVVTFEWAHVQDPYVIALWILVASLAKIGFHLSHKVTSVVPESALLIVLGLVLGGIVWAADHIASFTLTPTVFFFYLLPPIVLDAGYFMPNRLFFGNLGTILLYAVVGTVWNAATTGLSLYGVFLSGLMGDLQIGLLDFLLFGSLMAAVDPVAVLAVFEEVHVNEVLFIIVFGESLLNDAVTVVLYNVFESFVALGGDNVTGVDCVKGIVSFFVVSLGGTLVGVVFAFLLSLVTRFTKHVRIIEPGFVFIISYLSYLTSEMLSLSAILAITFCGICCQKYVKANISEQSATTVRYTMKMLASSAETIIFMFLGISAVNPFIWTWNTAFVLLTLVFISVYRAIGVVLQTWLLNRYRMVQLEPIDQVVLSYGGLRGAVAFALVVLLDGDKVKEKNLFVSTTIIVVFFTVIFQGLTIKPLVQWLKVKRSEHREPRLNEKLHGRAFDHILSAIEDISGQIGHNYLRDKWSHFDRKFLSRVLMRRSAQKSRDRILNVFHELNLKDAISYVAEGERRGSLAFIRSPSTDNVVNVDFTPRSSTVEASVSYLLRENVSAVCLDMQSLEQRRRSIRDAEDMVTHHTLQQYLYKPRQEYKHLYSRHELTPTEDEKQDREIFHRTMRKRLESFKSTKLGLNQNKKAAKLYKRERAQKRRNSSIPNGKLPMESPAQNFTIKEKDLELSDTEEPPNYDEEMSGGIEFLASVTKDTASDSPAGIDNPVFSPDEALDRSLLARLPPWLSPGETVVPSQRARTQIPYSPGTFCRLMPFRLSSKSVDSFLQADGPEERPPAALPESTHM
Experiment: Recovery of intracellular pH (pHi) after acidification in LAP1 cells stably expressing NHE3 (BCECF fluorescence, FLIPR)
Type: cell-based
Settings: LAP1 cells stably expressing NHE3; pH recovery after acidification; range 1 is % inhibition at 10 μM; read-out: Activity range (inhibitory effect on NHE3)

IC50 | inhibition at 10 µM | Compound
1 to 10 µM | – | N[C@H]1CCCN([C@H]2CCc3ccccc3[C@@H]2Oc2ccc(-n3cncn3)cc2)C1 (racemic) [Example 171, (S)-1-[rac-trans-(1,2)-1-(4-[1,2,4]triazol-1-ylphenoxy)-1,2,3,4-tetrahydronaphthalen-2-yl]piperidin-3-ylamine]
– | 20 to 50% | N[C@H]1CCCN([C@H]2CCc3ccccc3[C@@H]2Oc2ccnc(Cl)c2)C1 (racemic) [Example 153, (S)-1-[rac-trans-(1,2)-1-(2-chloropyridin-4-yloxy)-1,2,3,4-tetrahydronaphthalen-2-yl]piperidin-3-ylamine]
– | 20 to 50% | CS(=O)(=O)c1ccc(O[C@H]2c3ccccc3C[C@@H]2N2CCCC2)cc1Cl (racemic) [Example 268, 1-[rac-trans-(1,2)-1-(3-chloro-4-methanesulfonylphenoxy)indan-2-yl]pyrrolidine]
1 to 10 µM | – | O=S(=O)(c1ccc(O[C@H]2c3cc(Cl)cc(Cl)c3C[C@@H]2N2CC[C@@H](O)C2)cc1)N1CCOCC1 [Example 744, (R)-1-{trans-(1S,2S)-4,6-Dichloro-1-[4-(morpholine-4-sulfonyl)-phenoxy]-indan-2-yl}-pyrrolidin-3-ol]
– | 20 to 50% | N[C@@H]1CCCN([C@H]2CCc3ccccc3[C@@H]2Oc2cccc(F)c2)C1 (racemic) [Example 57, (R)-1-[rac-trans-(1,2)-1-(3-fluorophenoxy)-1,2,3,4-tetrahydronaphthalen-2-yl]piperidin-3-ylamine]
– | 20 to 50% | COc1cc(Cl)ccc1O[C@H]1c2ccccc2CC[C@@H]1N1CCC[C@H](N)C1 (racemic) [Example 174, (S)-1-[rac-trans-(1,2)-1-(4-chloro-2-methoxyphenoxy)-1,2,3,4-tetrahydronaphthalen-2-yl]piperidin-3-ylamine]
1 to 10 µM | – | N[C@@H]1CCCN([C@@H]2Cc3ccccc3[C@H]2Oc2ccncc2)C1 (racemic) [Example 86, (R)-1-[rac-trans-(1,2)-1-(pyridin-4-yloxy)indan-2-yl]piperidin-3-ylamine]
– | 20 to 50% | Nc1ccc2c(O[C@H]3c4ccccc4CC[C@@H]3N3CCOCC3)cccc2c1 (racemic) [Example 569, 5-(rac-trans-(1,2)-2-morpholin-4-yl-1,2,3,4-tetrahydronaphthalen-1-yloxy)naphthalen-2-ylamine]
– | 20 to 50% | CC(=O)Nc1cccc(OC2c3ccccc3CC2N2CC[C@@H](N3CCCC3)C2)c1 (mixture of isomers) [Example 670, N-[rac-trans-(1,2)-3-((R)-2-[1,3′]bipyrrolidinyl-1′-ylindan-]
1 to 10 µM | – | N[C@@H]1CCCN([C@@H]2Cc3ccccc3[C@H]2Oc2cccc(N3CCCCC3)c2)C1 (racemic) [Example 59, (R)-1-[rac-trans-(1,2)-1-(3-piperidin-1-ylphenoxy)indan-2-yl]piperidin-3-ylamine]
1 to 10 µM | – | CS(=O)(=O)c1ccc(O[C@H]2c3cc(Cl)cc(Cl)c3C[C@@H]2N2CC(O)C2)cc1 [Example 307, 1-[trans-(1S,2S)-4,6-dichloro-1-(4-methanesulfonylphenoxy)indan-2-yl]azetidin-3-ol]
< 1 µM | – | CCCC1(N)CCCN([C@H]2Cc3c(Cl)cc(Cl)cc3[C@@H]2Oc2ccc(S(C)(=O)=O)cc2)C1 (stereo partly drawn) [Example 299, 1-[trans-(1S,2S)-4,6-dichloro-1-(4-methanesulfonylphenoxy)indan-2-yl]-3-propylpiperidin-3-ylamine]
1 to 10 µM | – | CC1(C)OC(=O)N(c2ccc(Cl)c(O[C@H]3c4cc(Cl)cc(F)c4C[C@@H]3N3CC[C@@H](O)C3)c2)C1=O [Example 437, 3-{4-chloro-3-[(1S,2S)-6-chloro-4-fluoro-2-((R)-3-hydroxypyrrolidin-1-yl)indan-1-yloxy]phenyl}-5,5-dimethyloxazolidine-2,4-dione]
< 1 µM | – | Cc1nnc(C)n1-c1ccc(O[C@H]2c3cc(Cl)cc(Cl)c3C[C@@H]2N2CCCC2)c(F)c1 [Example 499, 4-[4-(trans-(1S,2S)-4,6-dichloro-2-pyrrolidin-1-ylindan-1-yloxy)-3-fluorophenyl]-3,5-dimethyl-4H-[1,2,4]triazole]
< 1 µM | – | Cn1ccn(-c2ccc(Cl)c(O[C@H]3c4cc(Cl)cc(Cl)c4C[C@@H]3N3CC[C@@H](O)C3)c2)c1=O [Example 335, 1-{4-chloro-3-[(1S,2S)-4,6-dichloro-2-((R)-3-hydroxypyrrolidin-1-yl)indan-1-yloxy]phenyl}-3-methyl-1,3-dihydroimidazol-2-one]
– | 20 to 50% | CN1CCN([C@H]2Cc3c(Cl)cc(Cl)cc3[C@@H]2Oc2ccc(-n3cncn3)cc2)CC1 [Example 296, 1-[trans-(1S,2S)-4,6-dichloro-1-(4-[1,2,4]triazol-1-ylphenoxy)indan-2-yl]-4-methylpiperazine]
1 to 10 µM | – | Cc1cc(O[C@H]2c3ccccc3C[C@@H]2N2CCCC2)ccc1S(C)(=O)=O (racemic) [Example 271, 1-[rac-trans-(1,2)-1-(4-methanesulfonyl-3-methylphenoxy)indan-2-yl]pyrrolidine]
– | 20 to 50% | N[C@H]1CCCN([C@H]2CCc3ccccc3[C@@H]2Oc2ccccc2Br)C1 (racemic) [Example 151, (S)-1-[rac-trans-(1,2)-1-(2-bromophenoxy)-1,2,3,4-tetrahydronaphthalen-2-yl]piperidin-3-ylamine]
< 1 µM | – | O=C1CSC(=O)N1c1ccc(O[C@H]2c3cc(Cl)cc(Cl)c3C[C@@H]2N2CC[C@@H](O)C2)cc1 [Example 428, 3-{4-[(1S,2S)-4,6-dichloro-2-((R)-3-hydroxypyrrolidin-1-yl)indan-1-yloxy]phenyl}thiazolidine-2,4-dione]
– | 20 to 50% | CC(=O)Nc1cccc(O[C@H]2c3ccccc3C[C@@H]2N2CCSCC2)c1 (racemic) [Example 643, N-[3-(rac-trans-(1,2)-2-thiomorpholin-4-ylindan-1-yloxy)phenyl]acetamide]
1 to 10 µM | – | Cc1c(Cl)cccc1O[C@@H]1c2ccccc2C[C@H]1N1CCC(CN)C1 (mixture of isomers) [Example 611, C-{1-[rac-trans-(1,2)-1-(3-chloro-2-methylphenoxy)indan-2-yl]pyrrolidin-3-yl}methylamine]
< 1 µM | – | Cc1nnc(C)n1-c1ccc(O[C@H]2c3cc(Cl)cc(Cl)c3C[C@@H]2N2CCC[C@@H](O)C2)cc1 [Example 132, (R)-1-{trans-(1S,2S)-4,6-dichloro-1-[4-(3,5-dimethyl-[1,2,4]triazol-4-yl)phenoxy]indan-2-yl}piperidin-3-ol]
1 to 10 µM | – | CN(c1ccc(F)c(O[C@H]2c3cc(Cl)cc(F)c3C[C@@H]2N2CC[C@@H](O)C2)c1)S(C)(=O)=O [Example 673, N-{3-[(1S,2S)-6-chloro-4-fluoro-2-((R)-3-hydroxypyrrolidin-1-yl)indan-1-yloxy]-4-fluorophenyl}-N-methyl-methanesulfonamide]
– | 20 to 50% | COc1cccc(F)c1O[C@@H]1c2cc(Cl)cc(Cl)c2C[C@H]1N1CCC[C@@H](N)C1 [Example 94, (R)-1-[trans-(1R,2R)-4,6-dichloro-1-(2-fluoro-6-methoxyphenoxy)indan-2-yl]piperidin-3-ylamine]

Compound | IC50 | inhibition at 10 µM
O=S(=O)(NCC(F)(F)F)c1ccc(O[C@@H]2c3ccccc3C[C@H]2N2CCCC2)cc1 (racemic) [Example 469, 4-(rac-trans-(1,2)-2-pyrrolidin-1-ylindan-1-yloxy)-N-(2,2,2-trifluoroethyl)benzenesulfonamide] | 1 to 10 µM | –
